Assay results taken from patent US6355799B1, “Substituted benzene compounds, process for their preparation, and herbicidal and defoliant compositions containing them” (ISK Americas Incorporated, priority 1997, dated 2002).

Columns and labels:
Type in all cases: in vivo
[1] = test system: redroot pigweed (Amaranthus retroflexus, AMARE); test: Pre-emerge test, greenhouse herbicide activity screening; conditions: rating scale 0-100, 14 days after application
Summary of the method: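 Plants grown in 10 cm pots of sandy loam mix received acetone-dissolved compounds through a moving flat-fan nozzle. Doses ranged from 15 to 1000 g ai/ha. Pre-emerge pots were seeded one day earlier, post-emerge pots 8–21 days earlier. Fourteen days on, each pot was graded 0–100 for damage.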

[2] = test system: barnyardgrass (Echinochloa crus-galli, ECHCG); test: as above; conditions: rating scale 0-100, 14 days after application
Summary of the method: (§1)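 Applied at 15–1000 g ai/ha from acetone in 187 l/ha spray volume. Post-emergence applications included 0.25% v/v non-ionic surfactant and reached plants sown 8–21 days before. Pre-emergence applications were incorporated by surface watering. Efficacy or crop damage was rated on a 0–100 scale after 14 days.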

[3] = test system: green foxtail (Setaria viridis, SETVI); test: as above; conditions: rating scale 0-100, 14 days after application
Summary of the method: as §1

[4] = test system: ivyleaf morningglory (Ipomoea hederacea, IPOHE); test: as above; conditions: rating scale 0-100, 14 days after application
Summary of the method: as §1

[5] = test system: johnsongrass (Sorghum halepense, SORHA); test: as above; conditions: rating scale 0-100, 14 days after application
Summary of the method: as §1

[6] = test system: lambsquarters (Chenopodium album, CHEAL); test: as above; conditions: rating scale 0-100, 14 days after application
Summary of the method: as §1

[7] = test system: large crabgrass (Digitaria sanguinalis, DIGSA); test: as above; conditions: rating scale 0-100, 14 days after application
Summary of the method: as §1

[8] = test system: sicklepod (Cassia obtusifolia, CASOB); test: as above; conditions: rating scale 0-100, 14 days after application
Summary of the method: as §1

[9] = test system: velvetleaf (Abutilon theophrasti, ABUTH); test: as above; conditions: rating scale 0-100, 14 days after application
Summary of the method: as §1

[10] = test system: field corn (Zea mays L., var. Dekalb 535, CORN); test: Pre-emerge test, crop safety; conditions: rating scale 0-100, 14 days after application
Summary of the method: (§2)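 Compounds in acetone were track-sprayed at 15-1000 g ai/ha (187 l/ha) on sandy loam pots: pre-emerge one day after seeding, post-emerge at 2-3 leaf stage with 0.25% v/v non-ionic surfactant. Phytotoxicity was rated 14 days later on a 0 (no damage) to 100 (complete death) scale.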

[11] = test system: upland rice (Oryza sp., var. Tebonnet, RICE); test: Pre-emerge test, crop safety; conditions: rating scale 0-100, 14 days after application
Summary of the method: as §2

[12] = test system: barnyardgrass (Echinochloa crus-galli, ECHCG); test: Post-emerge test, greenhouse herbicide activity screening; conditions: rating scale 0-100 (0 no damage, 100 complete death), 14 days after application
Summary of the method: (§3)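 Fourteen days after spraying, crop and weed injury was graded visually from 0, no effect, to 100, every plant dead. Test substances were dissolved in acetone and applied at 15–1000 g ai/ha with a flat-fan nozzle. Application was either pre-emergence, one day after sowing, or post-emergence at the 2–3 leaf stage.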

[13] = test system: common ragweed (Ambrosia artemisizfolia L., AMBEL); test: as above; conditions: rating scale 0-100 (0 no damage, 100 complete death), 14 days after application
Summary of the method: as §3

[14] = test system: green foxtail (Setaria viridis, SETVI); test: as above; conditions: rating scale 0-100 (0 no damage, 100 complete death), 14 days after application
Summary of the method: as §3

[15] = test system: ivyleaf morningglory (Ipomoea hederacea, IPOHE); test: as above; conditions: rating scale 0-100 (0 no damage, 100 complete death), 14 days after application
Summary of the method: as §3

[16] = test system: johnsongrass (Sorghum halepense, SORHA); test: as above; conditions: rating scale 0-100 (0 no damage, 100 complete death), 14 days after application
Summary of the method: as §3

[17] = test system: lambsquarters (Chenopodium album, CHEAL); test: as above; conditions: rating scale 0-100 (0 no damage, 100 complete death), 14 days after application
Summary of the method: as §3

[18] = test system: large crabgrass (Digitaria sanguinalis, DIGSA); test: as above; conditions: rating scale 0-100 (0 no damage, 100 complete death), 14 days after application
Summary of the method: as §3

[19] = test system: redroot pigweed (Amaranthus retroflexus, AMARE); test: as above; conditions: rating scale 0-100 (0 no damage, 100 complete death), 14 days after application
Summary of the method: as §3

[20] = test system: sicklepod (Cassia obtusifolia, CASOB); test: as above; conditions: rating scale 0-100 (0 no damage, 100 complete death), 14 days after application
Summary of the method: as §3

[21] = test system: velvetleaf (Abutilon theophrasti, ABUTH); test: as above; conditions: rating scale 0-100 (0 no damage, 100 complete death), 14 days after application
Summary of the method: as §3

[22] = test system: field corn (Zea mays L., var. Dekalb 535, CORN); test: Post-emerge test, crop safety; conditions: rating scale 0-100 (0 no damage, 100 complete death), 14 days after application
Summary of the method: as §1

[23] = test system: upland rice (Oryza sp., var. Tebonnet, RICE); test: Post-emerge test, crop safety; conditions: rating scale 0-100 (0 no damage, 100 complete death), 14 days after application
Summary of the method: as §1

COc1c(Cl)cc(F)c(-n2c(=O)cc(C(F)(F)F)n(C)c2=O)c1CC(Cl)C(=O)OCC(F)(F)C(F)(F)C(F)(F)F (single isomer, unassigned) [14-23]
80: Pre-emerge herbicidal activity, phytotoxicity rating SORHA ([5]; 250 g ai/ha) | Pre-emerge herbicidal activity, phytotoxicity rating ABUTH ([9]; 250 g ai/ha) | Post-emerge Herbicidal Activity, phytotoxicity rating IPOHE ([15]; Rate 63 g ai/ha) | Post-emerge Herbicidal Activity, phytotoxicity rating CHEAL ([17]; Rate 250 g ai/ha)
10: Pre-emerge herbicidal activity, phytotoxicity rating ECHCG ([2]; 63 g ai/ha)
40: Pre-emerge herbicidal activity, phytotoxicity rating SETVI ([3]; 250 g ai/ha) | Post-emerge Herbicidal Activity, phytotoxicity rating AMBEL ([13]; Rate 250 g ai/ha) | Post-emerge Herbicidal Activity, phytotoxicity rating SORHA ([16]; Rate 63 g ai/ha) | Post-emerge phytotoxicity rating CORN (crop damage) ([22]; Rate 250 g ai/ha)
90: Pre-emerge herbicidal activity, phytotoxicity rating CHEAL ([6]; 250 g ai/ha) | Pre-emerge herbicidal activity, phytotoxicity rating DIGSA ([7]; 250 g ai/ha) | Post-emerge Herbicidal Activity, phytotoxicity rating ABUTH ([21]; Rate 250 g ai/ha)
20: Post-emerge Herbicidal Activity, phytotoxicity rating CASOB ([20]; Rate 63 g ai/ha) | Post-emerge phytotoxicity rating RICE (crop damage) ([23]; Rate 250 g ai/ha)
100: Pre-emerge herbicidal activity, phytotoxicity rating AMARE ([1]; 250 g ai/ha) | Post-emerge Herbicidal Activity, phytotoxicity rating ECHCG ([12]; Rate 63 g ai/ha) | Post-emerge Herbicidal Activity, phytotoxicity rating ECHCG ([12]; Rate 250 g ai/ha) | Post-emerge Herbicidal Activity, phytotoxicity rating AMARE ([19]; Rate 250 g ai/ha)
50: Post-emerge Herbicidal Activity, phytotoxicity rating AMBEL ([13]; Rate 63 g ai/ha) | Post-emerge Herbicidal Activity, phytotoxicity rating SORHA ([16]; Rate 250 g ai/ha) | Post-emerge Herbicidal Activity, phytotoxicity rating CHEAL ([17]; Rate 63 g ai/ha) | Post-emerge Herbicidal Activity, phytotoxicity rating DIGSA ([18]; Rate 63 g ai/ha) | Post-emerge Herbicidal Activity, phytotoxicity rating AMARE ([19]; Rate 63 g ai/ha) | Post-emerge Herbicidal Activity, phytotoxicity rating ABUTH ([21]; Rate 63 g ai/ha)
0: Pre-emerge herbicidal activity, phytotoxicity rating SETVI ([3]; 63 g ai/ha) | Pre-emerge herbicidal activity, phytotoxicity rating IPOHE ([4]; 63 g ai/ha) | Pre-emerge herbicidal activity, phytotoxicity rating SORHA ([5]; 63 g ai/ha) | Pre-emerge herbicidal activity, phytotoxicity rating CHEAL ([6]; 63 g ai/ha) | Pre-emerge herbicidal activity, phytotoxicity rating CASOB ([8]; 63 g ai/ha) | Pre-emerge herbicidal activity, phytotoxicity rating CASOB ([8]; 250 g ai/ha) | Pre-emerge herbicidal activity, phytotoxicity rating ABUTH ([9]; 63 g ai/ha) | Pre-emerge phytotoxicity rating, crop damage CORN ([10]; 63 g ai/ha) | Pre-emerge phytotoxicity rating, crop damage CORN ([10]; 250 g ai/ha) | Pre-emerge phytotoxicity rating, crop damage RICE ([11]; 63 g ai/ha) | Pre-emerge phytotoxicity rating, crop damage RICE ([11]; 250 g ai/ha) | Post-emerge phytotoxicity rating CORN (crop damage) ([22]; Rate 63 g ai/ha) | Post-emerge phytotoxicity rating RICE (crop damage) ([23]; Rate 63 g ai/ha)
70: Post-emerge Herbicidal Activity, phytotoxicity rating SETVI ([14]; Rate 250 g ai/ha) | Post-emerge Herbicidal Activity, phytotoxicity rating CASOB ([20]; Rate 250 g ai/ha)
30: Pre-emerge herbicidal activity, phytotoxicity rating ECHCG ([2]; 250 g ai/ha) | Pre-emerge herbicidal activity, phytotoxicity rating IPOHE ([4]; 250 g ai/ha) | Pre-emerge herbicidal activity, phytotoxicity rating DIGSA ([7]; 63 g ai/ha)
60: Post-emerge Herbicidal Activity, phytotoxicity rating SETVI ([14]; Rate 63 g ai/ha)
95: Pre-emerge herbicidal activity, phytotoxicity rating AMARE ([1]; 63 g ai/ha) | Post-emerge Herbicidal Activity, phytotoxicity rating IPOHE ([15]; Rate 250 g ai/ha) | Post-emerge Herbicidal Activity, phytotoxicity rating DIGSA ([18]; Rate 250 g ai/ha)
